Values of other authors, collected in patent publication US7629342B2, “Azabicyclic heterocycles as cannabinoid receptor modulators” (Bristol-Myers Squibb Company, priority 2005, dated 2009).

Columns and labels:
[1] = chronic administration for two weeks
[2] = 16 week trial period, Phase IIb
[3] = highest dose; relative to 14.8% for placebo

| Structure (SMILES) | body weight [1] | body weight in human subjects [2] | patients stayed abstinent from cigarette smoke [3] [%] |
| --- | --- | --- | --- |
| Cc1c(C(=O)NN2CCCCC2)nn(-c2ccc(Cl)cc2Cl)c1-c1ccc(I)cc1 [AM-251] | substantial body weight reduction | – | – |
| Cc1c(C(=O)NN2CCCCC2)nn(-c2ccc(Cl)cc2Cl)c1-c1ccc(Cl)cc1 [SR-141716] | – | dose-dependently reduced body weight | 30.2 |
